The target of the test is T1, human PD-1 / PD-L1-Ig binding on Jurkat cell line over-expressing human PD-1 (Jurkat-PD-1) (Homo sapiens, UniProt Q15116).
T1 construct: expressed in transfected cells; host or cells: Jurkat
The test is described as follows: Jurkat-PD-1 Cell Binding High-Content Screening Assay (CBA). The note with it: Jurkat-PD-1 cells, PE-labeled PD-L1-Ig 20 nM final; read-out: Jurkat HPD1_PDL1 IC50. Type of test: cell-based. In short, it runs like this: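 Binding of fluorescent PD-L1-Ig (phycoerythrin linked via the Ig tag, 20 nM final) to PD-1-overexpressing Jurkat cells was imaged after a 2 h, 37° C compound pretreatment and 1 hour ligand incubation.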

Where a SMILES comes first, the peptide text is derived from it. Bridges are numbered along the chain shown (N, C = ends). [ ]: non-standard residue; d: D form. The star is where a group is joined. Phe(4-COOH) = N[C@@H](Cc1ccc(C(=O)O)cc1)C(=O)O; Bip = N[C@@H](Cc1ccc(-c2ccccc2)cc1)C(=O)O; Phe(3-Me) = Cc1cccc(C[C@H](N)C(=O)O)c1; Phe(4-F) = N[C@@H](Cc1ccc(F)cc1)C(=O)O; Val(3-OH) = CC(C)(O)[C@H](N)C(=O)O; Cha = N[C@@H](CC1CCCCC1)C(=O)O; Cit = NC(=O)NCCC[C@H](N)C(=O)O; Carboxymethyl = O=C(O)C*; Nle = CCCC[C@H](N)C(=O)O; Orn = NCCC[C@H](N)C(=O)O; Dab = NCC[C@H](N)C(=O)O; Dap = NC[C@H](N)C(=O)O

T1 sequence (Q15116 25-288): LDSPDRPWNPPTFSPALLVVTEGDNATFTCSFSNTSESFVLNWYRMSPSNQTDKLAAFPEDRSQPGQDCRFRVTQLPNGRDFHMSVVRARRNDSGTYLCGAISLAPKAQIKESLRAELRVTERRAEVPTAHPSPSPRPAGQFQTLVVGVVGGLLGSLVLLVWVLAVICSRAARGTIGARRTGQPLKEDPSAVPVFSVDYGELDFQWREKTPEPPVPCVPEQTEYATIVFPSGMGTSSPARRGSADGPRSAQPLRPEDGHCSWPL

With `CCCC[C@@H]1NC(=O)[C@H](Cc2c[nH]c3ccccc23)NC(=O)[C@H](CC(=O)O)NC(=O)[C@H](Cc2ccc(OCC(=O)O)cc2)NC(=O)[C@H](CN)NC(=O)CSC[C@@H](C(=O)N[C@@H](C)C(N)=O)NC(=O)[C@H]([C@@H](C)O)NC(=O)[C@H](C(C)C)NC(=O)[C@H](CC2CCCCC2)NC(=O)[C@H](CCN)NC(=O)[C@@H](CC(C)C)NC(=O)[C@H](CCCN)NC(=O)[C@H]([C@@H](C)CC)NC(=O)[C@H](Cc2ccc(-c3ccccc3)cc2)NC1=O` [Compound 1726] ({CH2CO}-[Dap]Y(Carboxymethyl)DW[Nle][Bip]I[Orn][dL][Dab][Cha]VTCA-NH2; thioether N-14), the IC50 was found to be 13.1 nM. In the case of `CCC[C@@H]1NC(=O)[C@H](Cc2c[nH]c3ccccc23)NC(=O)[C@H](CC(=O)O)NC(=O)[C@H](Cc2ccc(OCC(=O)O)cc2)NC(=O)[C@H](CN)NC(=O)CSC[C@@H](C(=O)N[C@@H](C)C(N)=O)NC(=O)[C@H]([C@@H](C)O)NC(=O)[C@H](C(C)C)NC(=O)[C@H](CC2CCCCC2)NC(=O)[C@H](CCN)NC(=O)[C@@H](CC(C)C)NC(=O)[C@H](CCCN)NC(=O)[C@H](CCCNC(N)=O)NC(=O)[C@H](Cc2ccc(-c3ccccc3)cc2)NC1=O` [Compound 1355], the IC50 was 8.2 nM. For `Cc1cccc(C[C@@H]2NC(=O)[C@H](CC(=O)O)NC(=O)[C@H](Cc3ccc(C(=O)O)cc3)NC(=O)[C@H](Cc3ccc(F)cc3)NC(=O)CSC[C@@H](C(=O)N[C@@H](CCN)C(N)=O)NC(=O)[C@H](Cc3cnc[nH]3)NC(=O)[C@H](C(C)(C)O)NC(=O)[C@H](CC3CCCCC3)NC(=O)[C@H](CCN)NC(=O)[C@@H](CC(C)C)NC(=O)[C@H](CCCN)NC(=O)[C@H](Cc3ccc(OCC(=O)O)cc3)NC(=O)[C@H](Cc3ccc(-c4ccccc4)cc3)NC(=O)[C@H](Cc3ccc(OCC(=O)O)cc3)NC2=O)c1` [Compound 2684] ({CH2CO}-[Phe(4-F)][Phe(4-COOH)]D[Phe(3-Me)]Y(Carboxymethyl)[Bip]Y(Carboxymethyl)[Orn][dL][Dab][Cha][Val(3-OH)]HC[Dab]-NH2; thioether N-14) the value was 1.9 nM; for `CC[C@H](C)[C@@H]1NC(=O)[C@H](Cc2ccc(-c3ccccc3)cc2)NC(=O)[C@H](C(C)C)NC(=O)[C@H](Cc2cccc(C)c2)NC(=O)[C@H](CC(=O)O)NC(=O)[C@H](Cc2ccc(OCC(=O)O)cc2)NC(=O)[C@H](Cc2ccncc2)NC(=O)CSC[C@@H](C(=O)N[C@@H](C)C(N)=O)NC(=O)[C@H]([C@@H](C)O)NC(=O)[C@H](C(C)C)NC(=O)[C@H](CC2CCCCC2)NC(=O)[C@H](CCN)NC(=O)[C@@H](CC(C)C)NC(=O)[C@H](CCCN)NC1=O` [Compound 1198], 15.6 nM. For the molecule `CC(C)C[C@@H]1NC(=O)[C@H](Cc2c[nH]c3ccccc23)NC(=O)[C@H](CC(=O)O)NC(=O)[C@H](Cc2ccc(O)cc2)NC(=O)[C@H](Cc2ccccc2)NC(=O)CSC[C@@H](C(=O)N[C@@H](C)C(N)=O)NC(=O)[C@H](CO)NC(=O)[C@H](C(C)C)NC(=O)[C@H](CC(C)C)NC(=O)[C@H](CC(N)=O)NC(=O)[C@@H](CC(C)C)NC(=O)[C@H](CCCN)NC(=O)[C@H](CCCNC(N)=O)NC(=O)[C@H](Cc2ccc(-c3ccccc3)cc2)NC1=O` [Compound 1234] ({CH2CO}-FYDWL[Bip][Cit][Orn][dL]NLVSCA-NH2; thioether N-14), the IC50 amounted to 36.6 nM.

`Cc1cccc(C[C@@H]2NC(=O)[C@H](CC(=O)O)NC(=O)[C@H](Cc3ccc(O)cc3)NC(=O)[C@H](Cc3cnc[nH]3)NC(=O)CSC[C@@H](C(=O)N[C@H](C)C(N)=O)NC(=O)[C@H](CO)NC(=O)[C@H](C(C)(C)O)NC(=O)[C@H](CC3CCCCC3)NC(=O)[C@H](CCN)NC(=O)[C@@H](CC(C)C)NC(=O)[C@H](CCCN)NC(=O)[C@H](Cc3ccc(OCC(=O)O)cc3)NC(=O)[C@H](Cc3ccc(-c4ccccc4)cc3)NC(=O)[C@H](Cc3ccc(OCC(=O)O)cc3)NC2=O)c1` [Compound 2652] ({CH2CO}-HYD[Phe(3-Me)]Y(Carboxymethyl)[Bip]Y(Carboxymethyl)[Orn][dL][Dab][Cha][Val(3-OH)]SC[dA]-NH2; thioether N-14): the IC50 is 29.6 nM.

For orientation: IC50 means the point on the concentration scale where inhibition reaches its midpoint.

(Values after patent publication US20250163104A1, “MACROCYCLIC IMMUNOMODULATORS” (priority 2021, published 2025).)
